Patent publication US8222230B2, “Pharmaceutical compositions with superior product performance and patient compliance” (Hoffmann-La Roche Inc., priority 2009, dated 2012)

How the values were obtained:
pKa of compound 1 = type: physicochemical; conditions: weak base
From the text: (§1) Compound 1 is being evaluated in the clinic for the treatment of liver infection caused by hepatitis C virus. The estimated daily dose is 1 g-2 g requiring high drug loading in the drug product to provide the best treatment regimen for the patients. […] The high dose and need for an immediate release profile are further complicated by the low bulk density of the drug substance (0.04 to 0.3 g/cc). The conventional manufacturing technologies employing commonly used excipients require the use of multiple densification steps as well as high amounts of excipients such as binders. In addition to the multi-step manufacturing process, the high usage of binder has a negative impact on the dissolution of the product resulting in lower bioavailability.

[1] = pH solubility profile of compound 1 at room temperature (FIG. 1); type: physicochemical; conditions: pH>4, FIG. 1
From the text: as §1
FIG. 1 provides a graph illustrating the pH solubility profile of compound 1 at room temperature.

With CC(C)C(=O)OC[C@H]1O[C@@H](n2ccc(N)nc2=O)[C@](C)(F)[C@@H]1OC(=O)C(C)C [Compound 1, Isobutyric acid (2R,3R,4R,5R)-5-(4-amino-2-oxo-2H-pyrimidin-1-yl)-4-fluoro-2-isobutyryloxymethyl-4-methyl-tetrahydro-furan-3-yl ester] the pKa (pKa of compound 1) was 3.5 and the “drug solubility vs pH” value [1] was “drops precipitously”.
